Results reported in US10624875B2, “Methods and compositions for treating schizophrenia” (The Johns Hopkins University, priority 2012, dated 2020).
Values joined by “and” are separate entries in the source; they are usually repeats but may differ in a detail not shown here. Identical values can stand only once.

What was measured:
[1] = system: aMCI subjects; assay: Benton Visual Retention Test; format: in vivo, human; conditions: 125 mg twice a day for two weeks
Description: (§1) A within-subjects trial of 8 weeks duration, involving 17 amnestic MCI (aMCI) subjects and 17 age-matched controls with a low dose treatment of levetiracetam is conducted. During the course of the study, each aMCI subject receives both drug and placebo treatments separately in two periods of two weeks each, with the order of treatments among different aMCI subjects counterbalanced (see FIG. 7). Age-matched control subjects treated with placebo serve as a further control. Cognitive testing and fMRI imaging data are obtained from the subjects after each two week period of drug/placebo treatment.
(§2) All participants undergo neuropsychological evaluation at the time of assessment for treatment efficacy (Visits 1 and 2), as well as at the Baseline Visit. […]
(§3) As described above, the drug treatment period is the two weeks preceding Visit 1 or 2 (with the two week period preceding the other Visit being the placebo phase). For the subjects receiving the drug treatment, half a scored 250 mg tablet of levetiracetam is used to achieve a dose of […], which is approximately 3.6 mg/kg/day (assuming an average adult human weight of 70 kg).

[2] = system: aged-impaired (AI) rats; assay: eight-arm Radial Arm Maze (RAM) task with one-hour delay, spatial memory retention; format: in vivo, rat
Description: The effects of levetiracetam on the spatial memory retention of aged-impaired (AI) rats were assessed in a Radial Arm Maze (RAM) behavioral task using vehicle control and five different dosage levels of levetiracetam (1.25 mg/kg/day, 2.5 mg/kg/day, 5 mg/kg/day, 10 mg/kg/day and 20 mg/kg/day). RAM behavioral tasks were preformed on ten AI rats. All six treatment conditions were tested on all ten rats, as described above for the MWM test. The RAM apparatus used consisted of eight equidistantly-spaced arms. An elevated maze arm (7 cm width×75 cm length) projected from each facet of an octagonal center platform (30 cm diameter, 51.5 cm height). Clear side walls on the arms were 10 cm high and were angled at 65° to form a trough. A food well (4 cm diameter, 2 cm deep) was located at the distal end of each arm. Froot Loops™ (Kellogg Company) were used as rewards. Blocks constructed of Plexiglas™ (30 cm height×12 cm width) could be positioned to prevent entry to any arm. Numerous extra maze cues surrounding the apparatus were also provided. The AI rats were initially subjected to a pre-training test (Chappell et al. Neuropharmacology 37: 481-487, 1998). The pre-training test consisted of a habituation phase (4 days), a training phase on the standard win-shift task (18 days) and another training phase (14 days) in which a brief delay was imposed between presentation of a subset of arms designated by the experimenter (e.g., 5 arms available and 3 arms blocked) and completion of the eight-arm win-shift task (i.e., with all eight arms available). In the habituation phase, rats were familiarized to the maze for an 8-minute session on four consecutive days. In each of these sessions food rewards were scattered on the RAM, initially on the center platform and arms and then progressively confined to the arms. After this habituation phase, a standard training protocol was used, in which a food pellet was located at the end of each arm. Rats received one trial each day for 18 days. Each daily trial terminated when all eight food pellets had been obtained or when either 16 choices were made or 15 minutes had elapsed. After completion of this training phase, a second training phase was carried out in which the memory demand was increased by imposing a brief delay during the trial. At the beginning of each trial, three arms of the eight-arm maze were blocked. Rats were allowed to obtain food on the five arms to which access was permitted during this initial ‘information phase’ of the trial. Rats were then removed from the maze for 60 seconds, during which time the barriers on the maze were removed, thus allowing access to all eight arms. Rats were then placed back onto the center platform and allowed to obtain the remaining food rewards during this ‘retention test’ phase of the trial. The identity and configuration of the blocked arms varied across trials. The number of “errors” the AI rats made during the retention test phase was tracked. An error occurred in the trial if the rats entered an arm from which food had already been retrieved in the pre-delay component of the trial, or if it re-visited an arm in the post-delay session that had already been visited. After completion of the pre-training test, rats were subjected to trials with more extended delay intervals, i.e., a one-hour delay, between the information phase (presentation with some blocked arms) and the retention test (presentation of all arms). […]

[3] = system: aMCI subjects; assay: Buschke Selective Reminding Test - Delayed Recall; format: in vivo, human; conditions: 125 mg twice a day for two weeks
Description: as §1
All participants undergo neuropsychological evaluation at the time of assessment for treatment efficacy (Visits 1 and 2), as well as at the Baseline Visit. The evaluation occurs outside of the scanner and includes the Buschke Selective Reminding Test (Buschke and Fuld, 1974) and the Verbal Paired Associates subtest, the Logical Memory subtest, the Visual Reproduction subtest of the Wechsler Memory Scale-Revised (WMS-R) (Wechsler, 1997), and the Benton Visual Retention Test, as these tasks are particularly sensitive to medial temporal lobe function and early memory problems (Marquis et al., 2002 and Masur et al., 1994). […]

[4] = system: aMCI subjects; assay: Verbal Paired Associates Test - Recognition; format: in vivo, human; conditions: 125 mg twice a day for two weeks
Description: as §1, §2, §3

[5] = system: aMCI subjects; assay: Verbal Paired Associates Test - Delayed Recall; format: in vivo, human; conditions: 125 mg twice a day for two weeks
Description: as §1, §2, §3

[6] = drug on its own (levetiracetam i.p., valproate subcutaneous)

SMILES: CC[C@@H](C(N)=O)N1CCCC1=O [levetiracetam, (2S)-2-(2-oxopyrrolidin-1-yl) butanamide]
- performance in Benton Visual Retention Test [1]: fail to rescue performance
- performance in the radial maze task ([2]; 20 mg/kg): fails to improve the performance
- dose effective in reducing the number of errors [2, 6]: 5 to 10 mg/kg
- dose not effective in reducing the number of errors [2, 6]: 1.25 mg/kg and 2.5 mg/kg
- performance in Buschke Selective Reminding Test - Delayed Recall [3]: fail to rescue performance
- performance in Verbal Paired Associates Test - Recognition [4]: fail to rescue performance
- performance in Verbal Paired Associates Test - Delayed Recall [5]: fail to rescue performance
